Laboratory results as given in patent US20150322033A1, “ANTIBACTERIAL AGENT” (priority 2012, published 2015).
Values after ≈ are worked out from the molar mass of the structure shown. Where two headings read alike, the source gives them in different places.

What was measured:
S. aureus Mu50 = assay: microbe, parasite or virus in culture; format: cell-based, Staphylococcus aureus; settings: for MIC: Staphylococcus aureus; for MIC (mg/L) Mu50: Example 1, Tables 1 to 10;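 as to MIC ratio: ratio is FDA209P MIC divided by Mu50 MIC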
Experimental: (§1) S. aureus Mu50 (refer to Hiramatsu, K., Hanaki H., et al., J. Antimicrob. Chemother., 1997, 40(1), 135-6) or S. aureus FDA209P (ATCC 6538P) was cultured overnight at 37° C. in 4 mL of TBS (Tryptical Soy Broth, produced by Becton Dickinson) with shaking. After completion of the culture, the cells were suspended in fresh TBS to prepare a cell suspension showing an absorbance of 0.3 at 578 nm. Then, the cell suspension was diluted 500 times with CAMHB mentioned above.
(§2) CAMHB containing each test compound at each of the aforementioned concentrations was added to each well of a 96-well plate in a volume of 50 μL/well, the aforementioned cell suspension diluted 500 time was added to the well in a volume of 50 μL/well, and stationary culture was carried out overnight at 37° C.
(§3) MIC values (mg/L) of the flavones and quinolones against the strains were measured in the same manner as that of the measurement of MIC of Example 1, except that CAMHB containing each of the aforementioned flavones and quinolones prepared in Example 2 was used instead of CAMHB containing each of the test compounds.
(§4) MIC values of the flavones and quinolone for the strains were measured in the same manners as those of Example 1, except that S. aureus Mu50 NR-1 was also used as Staphylococcus aureus in addition to S. aureus FDA209P and S. aureus Mu50, cell suspensions of the strains were prepared.
(§5) In the same manner as that of Example 1, MIC values of M-246, M-21, J-Q21, and J-Q12.1 for Staphylococcus aureus were measured. M-246 and M-21 were obtained as commercial products, and as J-Q21 and J-Q12.1, those synthesized in Examples 6 and 7 were used.

[1] = tested on: S. aureus FDA209P (ATCC 6538P); assay: microbe, parasite or virus in culture; format: cell-based, Staphylococcus aureus; settings: for MIC: Staphylococcus aureus
Experimental: as §1, §2, §3, §4, §5

[2] = Example 1, Tables 1 to 10, read-out: MIC (mg/L) FDA209P
[3] = MU50, read-out: MIC (mg/L) Mu50, Example 1, Tables 1 to 10
[4] = Example 8, Table 17, read-out: MIC FDA209P
[5] = MU50, read-out: MIC Mu50, Example 8, Table 17

Compound	MIC (mg/L) FDA209P ([1]; Example 1, Tables 1 to 10) [mg/L]	MIC (mg/L) Mu50 (S. aureus Mu50) [mg/L]	also measured
2-phenylchromen-4-one (2-phenyl-1-benzopyran-4-one) [No. 25, reference compound]			MIC (mg/L) Mu50 (S80F, S84L) (S. aureus Mu50; Example 3, Table 13): 64 mg/L
O.Oc1cc(O)c2c(c1)OC(c1ccc(O)c(O)c1)C(O)C2 (single isomer, unassigned; (+)) [compound 132, (+)-3,3′,4′,5,7-Flavanpentol Hydrate]			MIC [1, 2]: 128 mg/L; MIC (S. aureus Mu50; [3]): 128 mg/L
O=c1cc(-c2ccccc2)oc2ccccc12.O=c1cc(-c2ccccc2)oc2ccccc12 [Compound 25]			MIC (mg/L) S. aureus FDA209P ([1]; Example 2, Table 12): 128 mg/L; MIC ratio (S. aureus Mu50; (MIC value for S. aureus FDA209P)/(MIC value for S. aureus Mu50)): 2; MIC (mg/L) S. aureus Mu50 (S. aureus Mu50; Example 2, Table 12): 64 mg/L
O=c1cc(-c2ccc(O)cc2)oc2c(C3CC3)c(O)cc(O)c12 [J-Q12.1, 8-Cyclopropyl-5,7-dihydroxy-2-(4-hydroxyphenyl)-chromen-4-one]			MIC [1, 4]: 8 mg/L (≈ 25.8 µM); MIC (S. aureus Mu50; [5]): 8 mg/L (≈ 25.8 µM)
O=c1cc(-c2ccc(O)cc2)oc2c(C3CC3)c(O)ccc12 [J-Q21, 8-Cyclopropyl-7-hydroxy-2-(4-hydroxyphenyl)chromen-4-one]			MIC [1, 4]: > 128 mg/L; MIC (S. aureus Mu50; [5]): 4 mg/L (≈ 13.6 µM)
O=c1c(O)c(-c2ccccc2)oc2cc(O)c(O)c(O)c12 [M-21]			MIC FDA209P ([1]; Example 8, Table 17): 64 mg/L (≈ 224 µM); MIC Mu50 (S. aureus Mu50; Example 8, Table 17): 16 mg/L (≈ 55.9 µM)
O=c1c(O)c(-c2ccc(O)cc2O)oc2cc(O)cc(O)c12 [compound 2]	>128	128 (≈ 424 µM)	
O=c1c(O)c(-c2ccc(O)cc2O)oc2cc(O)cc(O)c12 [compound 3]	>128	>128	
Cc1c(O)cc2oc(-c3ccc(O)c(O)c3)c(O)c(=O)c2c1O [compound 5]	128 (≈ 405 µM)	128 (≈ 405 µM)	
Cc1c(O)cc(O)c2c(=O)cc(-c3ccccc3)oc12 [compound 8]	>128		
COc1ccc(-c2cc(=O)c3c(OC)c(OC)c(OC)c(OC)c3o2)cc1OC [compound 10]	128 (≈ 318 µM)		
COc1ccc(-c2cc(=O)c3c(OC)c(OC)c(OC)c(OC)c3o2)cc1 [compound 11]	>128	>128	
O=c1c(O)c(-c2ccccc2)oc2ccccc12 [compound 12]	>128	>128	
O=c1cc(-c2ccccc2)oc2ccc(O)cc12 [compound 13]	>128	>128	
O=c1cc(-c2ccccc2)oc2c(O)c(O)ccc12 [compound 14]	64 (≈ 252 µM)	64 (≈ 252 µM)	
COc1ccc2oc(-c3ccccc3)cc(=O)c2c1 [compound 16]	128 (≈ 507 µM)	128 (≈ 507 µM)	
O=c1cc(-c2ccccc2)oc2cccc(O)c12 [compound 17]	128 (≈ 537 µM)	128 (≈ 537 µM)	
COc1ccc(-c2cc(=O)c3c(OC)cc(OC)cc3o2)cc1 [compound 18]	128 (≈ 410 µM)	128 (≈ 410 µM)	
COc1cc(OC)c2c(=O)c(OC)c(-c3ccc(OC)c(OC)c3)oc2c1 [compound 19]	>128	>128	
COc1cc(OC)c2c(=O)cc(-c3ccccc3)oc2c1C [compound 21]	>128	>128	
CC(C)Oc1ccc(-c2cc(=O)c3c(OC(C)C)cc(OC(C)C)c(I)c3o2)cc1 [compound 23]	>128	>128	
COc1c(O)cc2oc(-c3ccc(O)cc3)cc(=O)c2c1O [compound 26]			MIC ([1]; read-out: MIC (mg/L) FDA209P): > 128 mg/L
COc1c(O)cc2oc(-c3ccc(O)cc3)c(OC)c(=O)c2c1O [compound 27]			MIC [1, 2]: > 128 mg/L; MIC (S. aureus Mu50; [3]): > 128 mg/L
COc1cc2oc(-c3ccc(O)cc3)cc(=O)c2c(O)c1OC [compound 28]			MIC [1, 2]: > 128 mg/L; MIC (S. aureus Mu50; [3]): > 128 mg/L
COc1cc(-c2oc3cc(O)c(OC)c(O)c3c(=O)c2OC)ccc1O [compound 29]			MIC [1, 2]: > 128 mg/L; MIC (S. aureus Mu50; [3]): > 128 mg/L
COc1ccc(-c2cc(=O)c3c(OC)c(OC)c(OC)c(OC)c3o2)cc1 [compound 30]			MIC [1, 2]: 128 mg/L (≈ 344 µM); MIC (S. aureus Mu50; [3]): > 128 mg/L
COc1cc2oc(-c3ccc(O)c(O)c3)cc(=O)c2c(O)c1OC [compound 31]			MIC [1, 2]: > 128 mg/L; MIC (S. aureus Mu50; [3]): > 128 mg/L
COc1ccc(-c2oc3cc4c(c(OC)c3c(=O)c2OC)OCO4)cc1 [compound 32]	>128	>128	
